These results are taken from patent US20240228489A1, “POSITIVE ALLOSTERIC MODULATORS OF THE MUSCARINIC ACETYLCHOLINE RECEPTOR M1” (Vanderbilt University, priority 2021, published 2024).

Assay [1] addresses T1, human mAChR M1 (Homo sapiens, UniProt P11229).
T1 sequence (P11229 1-460): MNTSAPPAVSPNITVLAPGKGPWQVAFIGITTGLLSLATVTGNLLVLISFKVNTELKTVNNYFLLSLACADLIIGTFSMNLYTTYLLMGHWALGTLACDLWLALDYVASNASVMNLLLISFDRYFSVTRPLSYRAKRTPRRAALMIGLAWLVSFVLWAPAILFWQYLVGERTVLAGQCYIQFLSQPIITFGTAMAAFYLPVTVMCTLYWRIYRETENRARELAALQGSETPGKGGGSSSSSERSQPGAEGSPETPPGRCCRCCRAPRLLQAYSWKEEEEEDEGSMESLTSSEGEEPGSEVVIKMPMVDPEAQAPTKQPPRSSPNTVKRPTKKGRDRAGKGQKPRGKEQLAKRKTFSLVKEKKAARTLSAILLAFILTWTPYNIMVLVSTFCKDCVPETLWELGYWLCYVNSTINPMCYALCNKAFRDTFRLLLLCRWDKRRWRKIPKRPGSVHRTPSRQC
The experiment in a line: mAChR M1 cell-based functional assay (calcium mobilization), PAM mode: increase in the EC20 acetylcholine response. The source says: (§1) Chinese hamster ovary (CHO-K1) cells stably expressing rat (r)M1 were purchased from the American Type Culture Collection and cultured according to their indicated protocol. CHO cells stably expressing human (h)M2, hM3, and hM5 were described previously (Levey, et al., 1991); hM1 and hM4 cDNAs were purchased from Missouri S&T cDNA Resource; rM4 cDNA was provided by T. I. Bonner (National Institutes of Health, Bethesda, MD). rM2 and rM3 were cloned from a rat brain cDNA library and sequence verified. hM1, rM2, rM3, hM4, and rM4 cDNAs were used to stably transfect CHO-K1 cells purchased from the American Type Culture Collection using Lipofectamine2000. To make stable rM2, hM2, rM3, hM4, and rM4 cell lines for use in calcium mobilization assays, these cells also were stably transfected with a chimeric G-protein (Gqi5) (provided by B. R. Conklin, University of California, San Francisco) using Lipofectamine 2000. rM1, hM1, rM3, hM3, rM5, and hM5 cells were grown in Ham's F-12 medium containing 10% heat-inactivated fetal bovine serum (FBS), 20 mM HEPES, and 50 μg/mL G418 sulfate. rM2-Gqi5, hM2-Gqi5, and hM4-Gqi5 cells were grown in the same medium also containing 500 μg/mL Hygromycin B. Stable rM4-Gqi5 cells were grown in DMEM containing 10% heat-inactivated FBS, 20 mM HEPES, 400 μg/mL G418 sulfate, and 500 μg/mL Hygromycin B.
(§2) For high throughput measurement of agonist-evoked increases in intracellular calcium, CHO-K1 cells stably expressing muscarinic receptors were plated in growth medium lacking G418 and hygromycin at 15,000 cells/20 μL/well in Greiner 384-well black-walled, tissue culture (TC)-treated, clear-bottom plates (VWR). Cells were incubated overnight at 37° C. and 5% C02. The next day, cells were washed using an ELX 405 (BioTek) with four washes (80 μL) of assay buffer then aspirated to 20 μL. Next, 20 μL of 16 μM Fluo-4/acetoxymethyl ester (Invitrogen, Carlsbad, CA) prepared as a 2.3 mM stock in DMSO and mixed in a 1:1 ratio with 10% (w/v) Pluronic F-127 and diluted in assay buffer was added to the wells and the cell plates were incubated for 50 min at 37° C. and 5% C02. Dye was removed by washing with the ELX 405 (four 80 μL washes of assay buffer) then aspirated to 20 μL. Compound master plates were formatted in an 11 point CRC format (1:3 dilutions) in 100% DMSO with a starting concentration of 10 mM using the BRAVO liquid handler (Agilent). Test compound CRCs were then transferred to daughter plates (240 nL) using the Echo acoustic plate reformatter (Labcyte, Sunnyvale, CA) and then diluted into assay buffer (40 μL) to a 2× stock using a Thermo Fisher Combi (Thermo Fisher Scientific, Waltham, MA).
Calcium flux was measured using the Functional Drug Screening System (FDSS) 6000 (Hamamatsu Corporation, Tokyo, Japan) as an increase in the fluorescent static ratio. Compounds were applied to cells (20 μL, 2×) using the automated system of the FDSS 6000 at 4 s into the 300 s protocol and the data were collected at 1 Hz. At 144 s into the 300 s protocol, 10 μL of an EC20 concentration of the muscarinic receptor agonist acetylcholine was added (5×), followed by the addition of 12 μL of an EC80 concentration of acetylcholine at the 230 s time point (5×). Agonist activity was analyzed as a concentration-dependent increase in calcium mobilization upon compound addition. Emax values for agonist activity are expressed relative to the maximum for acetylcholine. Positive allosteric modulator activity was analyzed as a concentration-dependent increase in the EC20 acetylcholine response. Antagonist activity was analyzed as a concentration-dependent decrease in the EC80 acetylcholine response. Concentration-response curves were generated using a four-parameter logistical equation in XLfit curve fitting software (IDBS, Bridgewater, NJ) for Excel (Microsoft, Redmond, WA) or Prism (GraphPad Software, Inc., San Diego, CA). […]
On the technique in general: A change in cytosolic calcium serves as a functional read-out for many receptors and channels.

The target of assay [2] is T1, human mAChR M1. The experiment in a line: mAChR M1 cell-based functional assay (calcium mobilization), agonist mode: compound alone, Emax relative to acetylcholine maximum. The settings on record: for EC50 / Agonist Activity Human M1 EC50: human mAChR M1; for Emax: relative to the maximum for acetylcholine.
From the text: as §1, §2
Calcium flux was measured using the Functional Drug Screening System (FDSS) 6000 (Hamamatsu Corporation, Tokyo, Japan) as an increase in the fluorescent static ratio. Compounds were applied to cells (20 μL, 2×) using the automated system of the FDSS 6000 at 4 s into the 300 s protocol and the data were collected at 1 Hz. At 144 s into the 300 s protocol, 10 μL of an EC20 concentration of the muscarinic receptor agonist acetylcholine was added (5×), followed by the addition of 12 μL of an EC80 concentration of acetylcholine at the 230 s time point (5×). Agonist activity was analyzed as a concentration-dependent increase in calcium mobilization upon compound addition. Emax values for agonist activity are expressed relative to the maximum for acetylcholine. Positive allosteric modulator activity was analyzed as a concentration-dependent increase in the EC20 acetylcholine response. Antagonist activity was analyzed as a concentration-dependent decrease in the EC80 acetylcholine response. Concentration-response curves were generated using a four-parameter logistical equation in XLfit curve fitting software (IDBS, Bridgewater, NJ) for Excel (Microsoft, Redmond, WA) or Prism (GraphPad Software, Inc., San Diego, CA).

With `[2H]C1([2H])c2ncccc2C(=O)N1Cc1c(C)cc(-c2cccc3nn(C)cc23)cc1F` (single isomer, unassigned) [Compound 155, 6-(2-Fluoro-6-methyl-4-(2-methyl-2H-indazol-4-yl)benzyl)-6,7-dihydro-5H-pyrrolo[3,4-b]pyridin-5-one-7,7-d2], on human mAChR M1 [1], the EC50 – broadly, the concentration needed to bring the measured effect to its halfway point – came out at 2480 nM and the Emax (usually the size of the effect at its maximum, as opposed to the concentration needed) was 82%. Further, at human mAChR M1 [2], the EC50 was 8250 nM and the Emax came to 34%.
With `[2H]C1([2H])c2ncccc2C(=O)N1Cc1c(C)cc(-c2cccc3nn(C([2H])([2H])[2H])cc23)cc1F` (single isomer, unassigned) [Compound 156, 6-(2-Fluoro-6-methyl-4-(2-(methyl-d3)-2H-indazol-4-yl)benzyl)-6,7-dihydro-5H-pyrrolo[3,4-b]pyridin-5-one-7,7-d2], the concentration giving a half-maximal response (EC50) at human mAChR M1 [1] stood at 194 nM; at human mAChR M1 [2] it was 8160 nM. Further, the figures for the Emax at human mAChR M1 [1] and on human mAChR M1 [2] were 85% and 33%, respectively.
With `[2H]C1([2H])c2ncccc2C(=O)N1Cc1c(F)cc(-c2cccc3nn(C)cc23)cc1F` [Compound 1, 6-(2,6-difluoro-4-(2-methyl-2H-indazol-4-yl)benzyl)-6,7-dihydro-5H-pyrrolo[3,4-b]pyridin-5-one-7,7-d2], on human mAChR M1 [1], the EC50 was found to be 538 nM and the Emax came to 84%. On human mAChR M1 [2], the “Agonist Activity Human M1 EC50” value is “Inactive” and the Emax amounted to 8%.
As for `[2H]C1([2H])c2ncccc2C(=O)N1Cc1c(F)cc(-c2ccnc3nn(C)cc23)cc1F` [Compound 2, 6-(2,6-difluoro-4-(2-methyl-2H-pyrazolo[3,4-b]pyridin-4-yl)benzyl)-6,7-dihydro-5H-pyrrolo[3,4-b]pyridin-5-one-7,7-d2], at human mAChR M1 [1], the EC50 turned out to be 980 nM and the Emax is 57%. At human mAChR M1 [2], the EC50 was determined as 7700 nM and the maximum response (Emax) stood at 34%.
`[2H]C1([2H])c2ncccc2C(=O)N1Cc1c(F)cc(-c2cnc3nn(C)cc3c2)cc1F` [Compound 3, 6-(2,6-difluoro-4-(2-methyl-2H-pyrazolo[3,4-b]pyridin-5-yl)benzyl)-6,7-dihydro-5H-pyrrolo[3,4-b]pyridin-5-one-7,7-d2]: at human mAChR M1 [1], the EC50 was 900 nM and the Emax was determined as 56%. On human mAChR M1 [2], the EC50 was 6920 nM and the Emax worked out at 31%.
As for `[2H]C1([2H])c2ncccc2C(=O)N1Cc1c(F)cc(-c2cc3cn(C)nc3cc2F)cc1F` [Compound 4, 6-(2,6-difluoro-4-(6-fluoro-2-methyl-2H-indazol-5-yl)benzyl)-6,7-dihydro-5H-pyrrolo[3,4-b]pyridin-5-one-7,7-d2], on human mAChR M1 [1], the EC50 stood at 1060 nM and the maximal effect (Emax) is 48%. For the same compound, on human mAChR M1 [2], the “Agonist Activity Human M1 EC50” value is “Inactive” and the maximal effect (Emax) amounted to 2%.
As for `[2H]C1([2H])c2ncccc2C(=O)N1Cc1c(F)cc(-c2ccn3ccnc3c2)cc1F` [Compound 5, 6-(2,6-difluoro-4-(imidazo[1,2-a]pyridin-7-yl)benzyl)-6,7-dihydro-5H-pyrrolo[3,4-b]pyridin-5-one-7,7-d2], on human mAChR M1 [1], the EC50 is 977 nM and the Emax is 40%. Also, on human mAChR M1 [2], the “Agonist Activity Human M1 EC50” value is listed as “Inactive” and the Emax was 2%.
Regarding `[2H]C1([2H])c2ncccc2C(=O)N1Cc1c(F)cc(-c2cc3cn(C)nc3cc2C)cc1F` [Compound 6, 6-(4-(2,6-dimethyl-2H-indazol-5-yl)-2,6-difluorobenzyl)-6,7-dihydro-5H-pyrrolo[3,4-b]pyridin-5-one-7,7-d2], on human mAChR M1 [1], the EC50 is 4090 nM and the Emax came to 48%. Further, at human mAChR M1 [2], the “Agonist Activity Human M1 EC50” value was “Inactive” and the Emax was found to be 7%.
On to `[2H]C1([2H])c2ncccc2C(=O)N1Cc1c(F)cc(-c2cc(F)c3nn(C)cc3c2)cc1F` [Compound 7, 6-(2,6-difluoro-4-(7-fluoro-2-methyl-2H-indazol-5-yl)benzyl)-6,7-dihydro-5H-pyrrolo[3,4-b]pyridin-5-one-7,7-d2], for which, at human mAChR M1 [1], the EC50 was determined as 952 nM and the Emax is 53%. Also, on human mAChR M1 [2], the “Agonist Activity Human M1 EC50” value is recorded as “Inactive” and the Emax came to 4%.
As to `[2H]C1([2H])c2ncccc2C(=O)N1Cc1c(F)cc(-c2ccc3nn(C)cc3c2)cc1F` [Compound 8, 6-(2,6-difluoro-4-(2-methyl-2H-indazol-5-yl)benzyl)-6,7-dihydro-5H-pyrrolo[3,4-b]pyridin-5-one-7,7-d^2], at human mAChR M1 [1], the half-maximal effective concentration (EC50) came to 639 nM and the Emax was determined as 62%. Also, at human mAChR M1 [2], the “Agonist Activity Human M1 EC50” value is “Inactive” and the Emax was 4%.
On to `[2H]C1([2H])c2ncccc2C(=O)N1Cc1ccc(-c2ccc3nn(C)cc3c2)cc1F` [Compound 9, 6-(2-fluoro-4-(2-methyl-2H-indazol-5-yl)benzyl)-6,7-dihydro-5H-pyrrolo[3,4-b]pyridin-5-one-7,7-d2], for which, at human mAChR M1 [1], the EC50 worked out at 686 nM and the Emax was determined as 71%. Besides, at human mAChR M1 [2], the “Agonist Activity Human M1 EC50” value is “Inactive” and the Emax was found to be 6%.
For the compound `[2H]C1([2H])c2ncccc2C(=O)N1Cc1ccc(-c2ccc3c(cnn3C)c2)cc1F` [Compound 10, 6-(2-fluoro-4-(1-methyl-1H-indazol-5-yl)benzyl)-6,7-dihydro-5H-pyrrolo[3,4-b]pyridin-5-one-7,7-d2], on human mAChR M1 [1], the concentration giving a half-maximal response (EC50) stood at 1460 nM and the Emax stood at 62%. Also, at human mAChR M1 [2], the “Agonist Activity Human M1 EC50” value is given as “Inactive” and the Emax stood at 4%.
Consider `[2H]C1([2H])c2ncccc2C(=O)N1Cc1ccc(-c2cccc3nn(C)cc23)cc1` [Compound 11, 6-(4-(2-methyl-2H-indazol-4-yl)benzyl)-6,7-dihydro-5H-pyrrolo[3,4-b]pyridin-5-one-7,7-d2], for which, at human mAChR M1 [1], the EC50 came out at 1300 nM and the maximal effect (Emax) came to 77%. In addition, on human mAChR M1 [2], the “Agonist Activity Human M1 EC50” value is “Inactive” and the Emax was found to be 6%.
